Test system: sera from patients infected with group O HIV-1 retroviruses
Experiment: Immunoenzymatic test: Test No. 1 (immunoreactivity of peptides coated on microplates)
Assay type: binding, human
Parameters: key to ABSORBANCE: >: signal greater than the reading capacity of the spectrophotometer
Details: for ABSORBANCE: cyclized peptide 2 μg/ml; for immunoreactivity compared with the other peptides (in words): summary of Table IV
Protocol: The sera used ESS, DUR, VAU and HAD are sera from French patients infected with group O HIV-1 retroviruses. The other serum samples from patients infected with group O HIV-1 retroviruses were obtained by the Yaoundé Pasteur Centre in Cameroon and were serotyped group O according to the serological algorithm described in AIDS (1977), 11, pp 445-453.
The HIV-negative sera (n=48) were obtained from healthy volunteers.
The synthetic peptides used were dissolved in water at a concentration of 1 mg/ml (stock solution). For the solid phase sensitization step (coating), 110 μl of a solution at 2 μg/ml of each peptide (obtained by diluting the stock solution with 0.1 M carbonate buffer solution) were added to each well of the microtitre plates Microtiter™ (NUNC). After incubating overnight at room temperature, the microplates were first washed with a Tris-NaCl buffer solution pH 7.4 containing 0.1% of Tween® 20 and 0.001% sodium merthiolate, and then saturated with a PBS solution containing 0.5% of Régilait™ (dried skimmed milk). After aspirating the saturating solution, the plates were heated for 10 min at 50° C.
The serum samples were diluted 1/5 with a skimmed milk solution (citrate buffer supplemented with 0.01% of phenol red, 0.25% of chloroform and 0.25% of Kathon®), deposited in the wells of the plates and incubated for 30 min at 40° C.
After washing with a Tris-NaCl buffer solution pH 7.4 containing 0.1% of Tween® 20 and 0.001% of sodium merthiolate, 100 μl of a solution of conjugate consisting of horseradish peroxidase-labelled anti-human IgG and IgM goat antibodies, containing as preservative 0.01% of sodium merthiolate, in solution in a citrate buffer solution supplemented with 30% glycerol and 25% normal foetal calf serum, were added to each plate well and then the plates were incubated for 30 min at 40° C.
After washing with a Tris-NaCl buffer solution pH 7.4 containing 0.1% of Tween® 20 and 0.001% of sodium merthiolate, the colour was developed by adding, to each well, 100 μl of O-phenylenediamine in solution in hydrogen peroxide. The microplates were then incubated for 30 min at room temperature and in the dark. The coloured reaction was then stopped by addition of 100 μl of 4N sulphuric acid. The absorbance (A) was determined at 490 and 620 nm.
The relative absorbance (A490-A620) read in each well is proportional to the immunoreactivity of each peptide. It indicates the ability of each peptide to react with the biological sample with which the test is carried out. The cut-off value was determined as being an absorbance equal to 0.15. It corresponds to the mean of the negative values (n=48) plus 12 standard deviations.
The reactivity of the peptides of the invention (peptide No. 3 (4B), peptide No. 2 (3B) and peptide No. 1 (2B), all in cyclized form), was compared with that of two synthetic peptides having, as sequence, a portion of the natural sequence of the envelope (env) of the VAU isolate (group O HIV-1 retrovirus) and comprising an immunodominant epitope of gp41.
For the study, these peptides were used in cyclized form.

“LLSLWGCRGKAVCYTSVQWNET [PEPTIDE No. 1 (2B)]” was tested, and the ABSORBANCE (serum 134) was “>”, the ABSORBANCE (serum 402) was “>” and the ABSORBANCE (serum 625) was “>”. For the same sequence, the ABSORBANCE (serum 1062) was “>”, the ABSORBANCE (serum 1105*) was “>” and the ABSORBANCE (serum 1581) was “>”. For the same sequence, the ABSORBANCE (serum 1702) was 1.162, the ABSORBANCE (serum 1754) was “>” and the ABSORBANCE (serum 2294) was 0.447. For the same sequence, the ABSORBANCE (serum 2312) was “>”, the ABSORBANCE (serum 2313) was “>” and the ABSORBANCE (serum 2352) was 0.205. The ABSORBANCE (serum 2551) was “>”, the ABSORBANCE (serum 2700) was “>” and the ABSORBANCE (serum 3016) was 0.243. The ABSORBANCE (serum 3136) was 0.302, the ABSORBANCE (serum 3235) was “>” and the ABSORBANCE (serum 3236) was “>”. The ABSORBANCE (serum 3302) was 0.386, the ABSORBANCE (serum 3482) was 1.473 and the ABSORBANCE (serum 3529) was 1.803. The ABSORBANCE (serum 3600*) was 2.743, the ABSORBANCE (serum 3627*) was 2.910 and the ABSORBANCE (serum 3637) was “>”. It also gave an ABSORBANCE (serum 3653) of 0.044, an ABSORBANCE (serum 3771) of 0.544 and an ABSORBANCE (serum 3884*) of 1.839. For the same sequence, the ABSORBANCE (serum 3891) was 2.780, the ABSORBANCE (serum 3935) was 0.307 and the ABSORBANCE (serum 3945) was “>”. The ABSORBANCE (serum 4021*) was “>”, the ABSORBANCE (serum 4288*) was 2.802 and the ABSORBANCE (serum 4364) was 1.382. The ABSORBANCE (serum 4434) was “>”, the ABSORBANCE (serum 4477) was “>” and the ABSORBANCE (serum 4489*) was “>”. The ABSORBANCE (serum 5149*) was “>”, the ABSORBANCE (serum 5164) was “>” and the ABSORBANCE (serum 5210) was “>”. The ABSORBANCE (serum 5270*) was “>”, the ABSORBANCE (serum 5373) was “>” and the ABSORBANCE (serum 5453) was “>”. The ABSORBANCE (serum 5766*) was “>”, the ABSORBANCE (serum 5931) was “>” and the ABSORBANCE (serum 5969*) was “>”. The ABSORBANCE (serum 6111) was “>”, the ABSORBANCE (serum 6165) was 2.714 and the ABSORBANCE (serum 6198*) was “>”. For the same sequence, the ABSORBANCE (serum 6295*) was “>”, the ABSORBANCE (serum 6487) was 2.687 and the ABSORBANCE (serum 6512*) was “>”. For the same sequence, the ABSORBANCE (serum 6627) was “>”, the ABSORBANCE (serum 6689*) was “>” and the ABSORBANCE (serum 6697) was “>”. For the same sequence, the ABSORBANCE (serum 6782) was 2.462, the ABSORBANCE (serum 6891) was 0.062 and the ABSORBANCE (serum 6976*) was “>”. The ABSORBANCE (serum 6998) was “>”, the ABSORBANCE (serum 7007) was “>” and the ABSORBANCE (serum 7120) was “>”. The ABSORBANCE (serum 7212) was “>”, the ABSORBANCE (serum 7258*) was 2.477 and the ABSORBANCE (serum 7297*) was “>”. For the same sequence, the ABSORBANCE (serum 7439) was “>”, the ABSORBANCE (serum 7443) was “>” and the ABSORBANCE (serum DUR*) was “>”. The ABSORBANCE (serum ESS*) was 2.494, the ABSORBANCE (serum HAD) was 0.041 and the ABSORBANCE (serum VAU*) was “>”. For the same sequence, the “immunoreactivity compared with the other peptides (in words)” value was “more immunoreactive than the VAU 22 AA peptide”.
With “LLSSWGCKGRLVCYTSVQWNET [PEPTIDE No. 3 (4B)]” the ABSORBANCE (serum 134) was “>”, the ABSORBANCE (serum 402) was “>” and the ABSORBANCE (serum 625) was “>”. The ABSORBANCE (serum 1062) was “>”, the ABSORBANCE (serum 1105*) was 1.421 and the ABSORBANCE (serum 1581) was “>”. For the same sequence, the ABSORBANCE (serum 1702) was “>”, the ABSORBANCE (serum 1754) was “>” and the ABSORBANCE (serum 2294) was “>”. The ABSORBANCE (serum 2312) was “>”, the ABSORBANCE (serum 2313) was “>” and the ABSORBANCE (serum 2352) was “>”. For the same sequence, the ABSORBANCE (serum 2551) was “>”, the ABSORBANCE (serum 2700) was “>” and the ABSORBANCE (serum 3016) was “>”. For the same sequence, the ABSORBANCE (serum 3136) was “>”, the ABSORBANCE (serum 3235) was “>” and the ABSORBANCE (serum 3236) was “>”. For the same sequence, the ABSORBANCE (serum 3302) was “>”, the ABSORBANCE (serum 3482) was 2.402 and the ABSORBANCE (serum 3529) was “>”. The ABSORBANCE (serum 3600*) was “>”, the ABSORBANCE (serum 3627*) was “>” and the ABSORBANCE (serum 3637) was “>”. The ABSORBANCE (serum 3653) was 1.352, the ABSORBANCE (serum 3771) was “>” and the ABSORBANCE (serum 3884*) was “>”. The ABSORBANCE (serum 3891) was “>”, the ABSORBANCE (serum 3935) was “>” and the ABSORBANCE (serum 3945) was “>”. For the same sequence, the ABSORBANCE (serum 4021*) was 0.430, the ABSORBANCE (serum 4288*) was “>” and the ABSORBANCE (serum 4364) was “>”. For the same sequence, the ABSORBANCE (serum 4434) was “>”, the ABSORBANCE (serum 4477) was “>” and the ABSORBANCE (serum 4489*) was “>”. For the same sequence, the ABSORBANCE (serum 5149*) was “>”, the ABSORBANCE (serum 5164) was “>” and the ABSORBANCE (serum 5210) was “>”. For the same sequence, the ABSORBANCE (serum 5270*) was “>”, the ABSORBANCE (serum 5373) was “>” and the ABSORBANCE (serum 5453) was 0.555. The ABSORBANCE (serum 5766*) was “>”, the ABSORBANCE (serum 5931) was “>” and the ABSORBANCE (serum 5969*) was “>”. The ABSORBANCE (serum 6111) was “>”, the ABSORBANCE (serum 6165) was “>” and the ABSORBANCE (serum 6198*) was “>”. For the same sequence, the ABSORBANCE (serum 6295*) was 1.718, the ABSORBANCE (serum 6487) was “>” and the ABSORBANCE (serum 6512*) was 0.746. The ABSORBANCE (serum 6627) was “>”, the ABSORBANCE (serum 6689*) was 0.710 and the ABSORBANCE (serum 6697) was “>”. The ABSORBANCE (serum 6782) was “>”, the ABSORBANCE (serum 6891) was “>” and the ABSORBANCE (serum 6976*) was “>”. For the same sequence, the ABSORBANCE (serum 6998) was “>”, the ABSORBANCE (serum 7007) was 2.136 and the ABSORBANCE (serum 7120) was “>”. The ABSORBANCE (serum 7212) was “>”, the ABSORBANCE (serum 7258*) was “>” and the ABSORBANCE (serum 7297*) was “>”. For the same sequence, the ABSORBANCE (serum 7439) was “>”, the ABSORBANCE (serum 7443) was “>” and the ABSORBANCE (serum DUR*) was “>”. The ABSORBANCE (serum ESS*) was “>**”, the ABSORBANCE (serum HAD) was “>” and the ABSORBANCE (serum VAU*) was 1.342. For the same sequence, the “immunoreactivity compared with the other peptides (in words)” value was “best performance”.

— US7053175B1, “Synthetic peptides useful in biological assays for detecting infections caused by group O HIV-1 viruses” (Bio-Rad Pasteur, priority 1997, dated 2006)
